Source: ChEMBL document CHEMBL1201862, “PubChem BioAssay data set” (2004)
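Assay format: 96-well plates, 48-hour exposure. GI50 marks 50% less growth.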 The source made the active and inactive calls. No stated cut-off is given here; in the data, active = GI50 up to about 1.1 µM and inactive = higher.

Legend:
Experiment in all cases: NCI anticancer screen, dose series, 48 h
[1] = tested on: HL-60
[2] = tested on: SF-268
[3] = tested on: CAKI-1
[4] = tested on: SK-OV-3
[5] = tested on: NCI/ADR-RES
[6] = tested on: TK-10
[7] = tested on: NCI-H23
[8] = tested on: PC-3
[9] = tested on: HOP-92
[10] = tested on: OVCAR-5
[11] = tested on: SK-MEL-2
[12] = tested on: OVCAR-8
[13] = tested on: SK-MEL-5
[14] = tested on: DU-145
[15] = tested on: MDA-MB-435
[16] = tested on: MDA-MB-231
[17] = tested on: SF-295
[18] = tested on: NCI-H522
[19] = tested on: NCI-H460
[20] = tested on: M14
[21] = tested on: HCC 2998
[22] = tested on: K562
[23] = tested on: HCT-15
[24] = tested on: SNB-19
[25] = tested on: CCRF-CEM
[26] = tested on: RXF 393
[27] = tested on: HT-29
[28] = tested on: SF-539
[29] = tested on: Hs-578T
[30] = tested on: UO-31
[31] = tested on: ACHN
[32] = tested on: KM12
[33] = tested on: OVCAR-3
[34] = tested on: U-251
[35] = tested on: LOX IMVI
[36] = tested on: MOLT-4
[37] = tested on: IGROV-1
[38] = tested on: SNB-75
[39] = tested on: UACC-62
[40] = tested on: SK-MEL-28
[41] = tested on: SR
[42] = tested on: 786-0
[43] = tested on: HCT-116
[44] = tested on: SN12C
[45] = tested on: UACC-257
[46] = tested on: MDA-N
[47] = tested on: OVCAR-4
[48] = tested on: RPMI-8226
[49] = tested on: Malme-3M
[50] = tested on: MCF7
[51] = tested on: T47D
[52] = tested on: A498
[53] = tested on: COLO 205
[54] = tested on: EKVX
[55] = tested on: BT-549
[56] = tested on: HOP-62
[57] = tested on: NCI-H226
[58] = tested on: A549
[59] = tested on: SW-620

Measured: GI50

CC[C@@H]1CN(C)[C@H]2Cc3c([nH]c4ccccc34)C(=O)C[C@H]1C2C(=O)OC (stereo partly drawn)
inactive: [1] > 89.3 µM | [2] > 100 µM | [3] > 100 µM | [4] > 100 µM | [5] > 95.7 µM | [6] > 58.9 µM | [7] > 100 µM | [8] > 100 µM | [9] > 100 µM | [10] > 100 µM | [11] > 100 µM | [12] > 100 µM | [13] > 100 µM | [14] > 100 µM | [15] > 100 µM | [16] > 100 µM | [17] > 54.2 µM | [18] > 100 µM | [19] > 100 µM | [20] > 100 µM | [21] > 100 µM | [22] > 100 µM | [24] > 100 µM | [25] 96.6 µM | [26] > 77.8 µM | [27] > 100 µM | [28] > 100 µM | [29] > 100 µM | [30] > 100 µM | [31] > 100 µM | [32] > 100 µM | [33] > 100 µM | [34] > 100 µM | [35] > 100 µM | [36] > 93.8 µM | [37] > 100 µM | [38] > 91.4 µM | [39] > 100 µM | [40] > 100 µM | [41] > 100 µM | [42] > 100 µM | [43] > 100 µM | [44] > 100 µM | [45] > 100 µM | [46] > 100 µM | [47] > 31.6 µM | [48] > 88.5 µM | [49] > 100 µM | [50] > 100 µM | [51] > 100 µM | [52] > 100 µM | [53] > 100 µM | [54] > 100 µM | [55] > 100 µM | [56] > 72.8 µM | [57] > 100 µM | [58] > 100 µM | [59] > 100 µM
> 100 µM: [23]

COc1ccc2[nH]c3c(C)c4ccnc(NCCCN(C)CCCNc5ccc6ncn7c8ccccc8c(=O)c5c67)c4c(C)c3c2c1
0.21 µM: [23]
inactive: [4] 2.29 µM | [9] 1.68 µM | [10] 1.3 µM | [11] 3.24 µM | [29] 3.15 µM | [33] 1.87 µM | [38] 1.71 µM | [39] 1.71 µM
active: [1] 0.08 µM | [2] 0.352 µM | [3] 0.242 µM | [5] 0.664 µM | [6] 0.22 µM | [7] 0.412 µM | [8] 0.752 µM | [12] 0.348 µM | [13] 0.573 µM | [14] 0.796 µM | [15] 0.713 µM | [16] 0.322 µM | [17] 0.34 µM | [18] 0.0524 µM | [19] 0.0782 µM | [20] 0.998 µM | [21] 0.0578 µM | [22] 0.0632 µM | [24] 0.752 µM | [25] 0.0394 µM | [26] 0.256 µM | [27] 0.0141 µM | [28] 0.132 µM | [30] 0.361 µM | [31] 0.0598 µM | [32] 0.478 µM | [34] 0.134 µM | [35] 0.136 µM | [36] 0.0043 µM | [37] 0.158 µM | [40] 0.671 µM | [41] 0.0197 µM | [42] 0.0632 µM | [43] 0.0767 µM | [44] 0.0621 µM | [45] 0.723 µM | [46] 0.411 µM | [47] 0.106 µM | [48] 0.13 µM | [49] 1.07 µM | [50] 0.142 µM | [51] 0.979 µM | [52] 1.11 µM | [53] 0.272 µM | [54] 0.94 µM | [55] 1.06 µM | [56] 0.275 µM | [57] 0.082 µM | [58] 0.106 µM | [59] 0.0418 µM
